Data on 20 compounds can be found in patent US9855249B2, “Isoxazole compounds and methods for the treatment of cystic fibrosis” (FLATLEY DISCOVERY LAB, LLC, priority 2014, dated 2018).

The experiment concerns CFTR mediated chloride current in Primary CF airway epithelial cells. As to the kind of experiment: Equivalent current assay in primary CF airway epithelial cells (NAUC). The experiment is classed as cell-based. The following applies: 24 h treatment, stimulated with forskolin and VX770, normalized to positive control 3 μM VX809. How it is done: Primary CF airway epithelial cells were obtained from the UNC Cystic Fibrosis Tissue Procurement and Cell Culture Core. The cells are grown at 37° C. in a Heracell 150i incubator using growth media (BEGM, Fischer). Cells were then transferred to differentiation media (ALI, UNC) for a minimum of 4 weeks on coated Costar snapwells. Two days before the Ussing assay the mucus on the apical surface of the cells was aspirated after incubating with 200 μL of differentiation Media for at least thirty (30) minutes. One day before the Ussing assay test compounds were added to the basolateral surface of the cells at various test concentrations dissolved in DMSO. Duplicate wells were prepared giving a n=3 or n=4 protocol.
Cells were treated for 24 hours with various combinations and concentrations of the test articles, reference standard (3 μM VX809, positive control). Compounds stock solutions were prepared in DMSO and diluted 1/1000 into ALI media to their final assay concentration. Cells were treated with combination solutions (2 mL of each dilution) and incubated at 37° C. for 24 h.
For the equivalent current assay, cells on four Transwell (24-well) plates were treated. Each Transwell plate was filled with 200 μl of HBS on the apical surface and 2 ml on the basolateral surface. Plates were placed horizontally in a heated mount at 37° C., and equilibrated for several minutes. Resting current was measured for 15 min and then blocked by the apical addition of 5 μM benzamil. After 20 min, 10 μM forskolin and 1 μM VX770 were added to both the apical and basolateral side to stimulate CFTR. An increase in chloride current is seen as an upward deflection of the trace. After another 30 min, CFTR-172 (a CFTR inhibitor, 2 μM) and/or bumetanide (20 μM) was added to block CFTR mediated chloride current.
The raw data, current vs. time for the Ussing chamber (sampling interval: 10 s) and voltage vs. time and resistance vs. time for the equivalent current assay (sampling interval: 5 minutes) were transferred to Excel (Microsoft Office Professional, version 14.0.7106.5003) for analysis. CFTR specific current was measured as the average amplitude of the increase in current elicited upon addition forskolin and ending upon addition of the CFTR channel specific blocker CFTR-172. This average is equivalent to the sum of the average forskolin activated and the average VX770-potentiated currents. The average current measured in vehicle (0.1% DMSO) treated cells, Iv, was subtracted from the current for the test article, ITA, or from the corrector reference standard VX809 (3 μM ISTD. For replicate measurements, the average vehicle subtracted response for the test article, was normalized to the average vehicle subtracted […] response of the reference corrector VX809 (3 μM). INSC=(ITA−IV)(ave)/(ISTD−IV)(ave) (Equation 1)
A second endpoint, for the equivalent current assay, evaluated was NAUC, the normalized area under the curve (AUC) measuring the response after addition of forskolin and VX770 to the time point right before the addition of the CFTR inhibitor. The AUC is effectively the average response multiplied by the duration of the response. The AUC of the test article, AUCTA was then corrected by subtracting the average vehicle response, AUCV,ave over the same time range, and normalized as for the inhibitor-sensitive current to the difference of the corrector reference standard VX809 (3 μM VX809r,ave and the vehicle response: NAUCTA=[AUCTA−AUCV,ave]/[AUCVx809r,ave−AUCV,ave](Equation 2).
The normalized value for DMSO is 0.0 and for VX-809 alone is 1.0. Combinations of compounds with VX-809 that give normalized values greater than 1.0 show activity in the combination assay. A value of 2 means the test compound doubles the effect to VX-809 alone.
Experiments were run with a minimum of n=4 replicates per concentration. […]

Molecules are shown by their SMILES.

On to `O=C(NC[C@H]1CCCO1)c1cc(-c2ccc(F)cc2)on1` [Example 30], for which the “NAUC (normalized area under the curve), Test Conc 3 uM” value is listed as “++ (NAUC “++” refers to an observed NAUC 170-140% of positive control)” and the “NAUC (normalized area under the curve), Test Conc 10 uM” value is listed as “++ (NAUC “++” refers to an observed NAUC 170-140% of positive control)”.

Turning to `CC(C)CCNC(=O)c1cc(-c2ccc(F)cc2)on1` [Example 31], the “NAUC (normalized area under the curve), Test Conc 3 uM” value is listed as “++ (NAUC “++” refers to an observed NAUC 170-140% of positive control)” and the “NAUC (normalized area under the curve), Test Conc 10 uM” value is reported as “++ (NAUC “++” refers to an observed NAUC 170-140% of positive control)”.

Regarding `O=C(NCC(c1ccccc1)c1ccccc1)c1cc(-c2ccc(F)cc2)on1` [Example 32], the “NAUC (normalized area under the curve), Test Conc 3 uM” value is given as “+ (NAUC “+” refers to an observed NAUC <140% of positive control)” and the “NAUC (normalized area under the curve), Test Conc 10 uM” value is “+ (NAUC “+” refers to an observed NAUC <140% of positive control)”.

Regarding `O=C(NCC1CCCCC1)c1cc(-c2ccc(F)cc2)on1` [Example 33], the “NAUC (normalized area under the curve), Test Conc 3 uM” value is “+ (NAUC “+” refers to an observed NAUC <140% of positive control)” and the “NAUC (normalized area under the curve), Test Conc 10 uM” value is “+ (NAUC “+” refers to an observed NAUC <140% of positive control)”.

Take `O=C(NCCOc1ccccc1)c1cc(-c2ccc(F)cc2)on1` [Example 34]: the “NAUC (normalized area under the curve), Test Conc 3 uM” value is listed as “+ (NAUC “+” refers to an observed NAUC <140% of positive control)” and the “NAUC (normalized area under the curve), Test Conc 10 uM” value is recorded as “+ (NAUC “+” refers to an observed NAUC <140% of positive control)”.

With `O=C(NCC(F)(F)F)c1cc(-c2ccc(F)cc2)on1` [Example 35], the “NAUC (normalized area under the curve), Test Conc 3 uM” value is “++ (NAUC “++” refers to an observed NAUC 170-140% of positive control)” and the “NAUC (normalized area under the curve), Test Conc 10 uM” value is given as “+++ (NAUC “+++” refers to an observed NAUC >170% of positive control)”.

Consider `O=C(NCC1CC1)c1cc(-c2ccc(F)cc2)on1` [Example 36, N-(cyclopropylmethyl)-5-(4-fluorophenyl)isoxazole-3-carboxamide], for which the “NAUC (normalized area under the curve), Test Conc 3 uM” value is given as “++ (NAUC “++” refers to an observed NAUC 170-140% of positive control)” and the “NAUC (normalized area under the curve), Test Conc 10 uM” value is recorded as “+++ (NAUC “+++” refers to an observed NAUC >170% of positive control)”.

As for `O=C(NCCN1CCOCC1)c1cc(-c2ccc(F)cc2)on1` [Example 37, 5-(4-fluorophenyl)-N-(2-morpholinoethyl)isoxazole-3-carboxamide], the “NAUC (normalized area under the curve), Test Conc 3 uM” value is listed as “+ (NAUC “+” refers to an observed NAUC <140% of positive control)” and the “NAUC (normalized area under the curve), Test Conc 10 uM” value is listed as “++ (NAUC “++” refers to an observed NAUC 170-140% of positive control)”.

Regarding `O=C(NCCCCC(=O)N1CCC1)c1cc(-c2ccccc2)on1` [Example 38, N-(5-(azetidin-1-yl)-5-oxopentyl)-5-phenylisoxazole-3-carboxamide], the “NAUC (normalized area under the curve), Test Conc 3 uM” value is recorded as “+++ (NAUC “+++” refers to an observed NAUC >170% of positive control)” and the “NAUC (normalized area under the curve), Test Conc 10 uM” value was “+++ (NAUC “+++” refers to an observed NAUC >170% of positive control)”.

With `CN1CCN(C(=O)CCCCNC(=O)c2cc(-c3ccccc3)on2)CC1` [Example 43, N-(5-(4-methylpiperazin-1-yl)-5-oxopentyl)-5-phenylisoxazole-3-carboxamide], the “NAUC (normalized area under the curve), Test Conc 3 uM” value is “+++ (NAUC “+++” refers to an observed NAUC >170% of positive control)” and the “NAUC (normalized area under the curve), Test Conc 10 uM” value is “+++ (NAUC “+++” refers to an observed NAUC >170% of positive control)”.

As to `O=C(NCCC(=O)N1CCC1)c1cc(-c2ccccc2)on1` [Example 44, N-(3-(azetidin-1-yl)-3-oxopropyl)-5-phenylisoxazole-3-carboxamide], the “NAUC (normalized area under the curve), Test Conc 3 uM” value is listed as “+++ (NAUC “+++” refers to an observed NAUC >170% of positive control)” and the “NAUC (normalized area under the curve), Test Conc 10 uM” value is listed as “+++ (NAUC “+++” refers to an observed NAUC >170% of positive control)”.

`CN1CCN(C(=O)CCNC(=O)c2cc(-c3ccccc3)on2)CC1` [Example 48]: the “NAUC (normalized area under the curve), Test Conc 3 uM” value is on record as “+++ (NAUC “+++” refers to an observed NAUC >170% of positive control)” and the “NAUC (normalized area under the curve), Test Conc 10 uM” value is given as “+++ (NAUC “+++” refers to an observed NAUC >170% of positive control)”.

Take `O=C(NCCC(=O)N1CCC1)c1cc(-c2ccc(F)cc2)no1` [Example 51, N-(3-(azetidin-1-yl)-3-oxopropyl)-3-(4-fluorophenyl)isoxazole-5-carboxamide]: the “NAUC (normalized area under the curve), Test Conc 3 uM” value was “++ (NAUC “++” refers to an observed NAUC 170-140% of positive control)” and the “NAUC (normalized area under the curve), Test Conc 10 uM” value is on record as “+++ (NAUC “+++” refers to an observed NAUC >170% of positive control)”.

In the case of `CN1CCN(C(=O)CCNC(=O)c2cc(-c3ccc(F)cc3)no2)CC1` [Example 52, 3-(4-fluorophenyl)-N-(3-(4-methylpiperazin-1-yl)-3-oxopropyl)isoxazole-5-carboxamide], the “NAUC (normalized area under the curve), Test Conc 3 uM” value was “++ (NAUC “++” refers to an observed NAUC 170-140% of positive control)” and the “NAUC (normalized area under the curve), Test Conc 10 uM” value is “+++ (NAUC “+++” refers to an observed NAUC >170% of positive control)”.

Consider `O=C(NCCCCC(=O)N1CCC1)c1cc(-c2ccc(F)cc2)no1` [Example 53, N-(5-(azetidin-1-yl)-5-oxopentyl)-3-(4-fluorophenyl)isoxazole-5-carboxamide], for which the “NAUC (normalized area under the curve), Test Conc 3 uM” value is given as “++ (NAUC “++” refers to an observed NAUC 170-140% of positive control)” and the “NAUC (normalized area under the curve), Test Conc 10 uM” value is given as “+++ (NAUC “+++” refers to an observed NAUC >170% of positive control)”.

Turning to `CN1CCN(C(=O)CCCCNC(=O)c2cc(-c3ccc(F)cc3)no2)CC1` [Example 54, 3-(4-fluorophenyl)-N-(5-(4-methylpiperazin-1-yl)-5-oxopentyl)isoxazole-5-carboxamide], the “NAUC (normalized area under the curve), Test Conc 3 uM” value is reported as “++ (NAUC “++” refers to an observed NAUC 170-140% of positive control)” and the “NAUC (normalized area under the curve), Test Conc 10 uM” value was “+++ (NAUC “+++” refers to an observed NAUC >170% of positive control)”.

In the case of `O=C(NCCCCC(=O)N1CCC1)c1cc(-c2ccccc2)no1` [Example 55, N-(5-(azetidin-1-yl)-5-oxopentyl)-3-phenylisoxazole-5-carboxamide], the “NAUC (normalized area under the curve), Test Conc 3 uM” value was “++ (NAUC “++” refers to an observed NAUC 170-140% of positive control)” and the “NAUC (normalized area under the curve), Test Conc 10 uM” value was “+++ (NAUC “+++” refers to an observed NAUC >170% of positive control)”.

On to `CN1CCN(C(=O)CCCCNC(=O)c2cc(-c3ccccc3)no2)CC1` [Example 59], for which the “NAUC (normalized area under the curve), Test Conc 3 uM” value is on record as “+++ (NAUC “+++” refers to an observed NAUC >170% of positive control)” and the “NAUC (normalized area under the curve), Test Conc 10 uM” value is on record as “+++ (NAUC “+++” refers to an observed NAUC >170% of positive control)”.

On to `O=C(NCCC(=O)N1CCC1)c1cc(-c2ccccc2)no1` [Example 60, N-(3-(azetidin-1-yl)-3-oxopropyl)-3-phenylisoxazole-5-carboxamide], for which the “NAUC (normalized area under the curve), Test Conc 3 uM” value is listed as “+++ (NAUC “+++” refers to an observed NAUC >170% of positive control)” and the “NAUC (normalized area under the curve), Test Conc 10 uM” value is reported as “+++ (NAUC “+++” refers to an observed NAUC >170% of positive control)”.

On to `CN1CCN(C(=O)CCNC(=O)c2cc(-c3ccccc3)no2)CC1` [Example 63], for which the “NAUC (normalized area under the curve), Test Conc 3 uM” value is listed as “+++ (NAUC “+++” refers to an observed NAUC >170% of positive control)” and the “NAUC (normalized area under the curve), Test Conc 10 uM” value was “+++ (NAUC “+++” refers to an observed NAUC >170% of positive control)”.
